Two molecules from BindingDB's records for doi:10.1016/j.bmcl.2005.09.045 (University of Leeds, 2006) can be followed below.

pIC50: −log10 of the molar value.

The target in this assay is T1, Dihydroorotate dehydrogenase (quinone), mitochondrial (Plasmodium falciparum (isolate 3D7), UniProt Q08210).
T1 sequence (Q08210 whole entry): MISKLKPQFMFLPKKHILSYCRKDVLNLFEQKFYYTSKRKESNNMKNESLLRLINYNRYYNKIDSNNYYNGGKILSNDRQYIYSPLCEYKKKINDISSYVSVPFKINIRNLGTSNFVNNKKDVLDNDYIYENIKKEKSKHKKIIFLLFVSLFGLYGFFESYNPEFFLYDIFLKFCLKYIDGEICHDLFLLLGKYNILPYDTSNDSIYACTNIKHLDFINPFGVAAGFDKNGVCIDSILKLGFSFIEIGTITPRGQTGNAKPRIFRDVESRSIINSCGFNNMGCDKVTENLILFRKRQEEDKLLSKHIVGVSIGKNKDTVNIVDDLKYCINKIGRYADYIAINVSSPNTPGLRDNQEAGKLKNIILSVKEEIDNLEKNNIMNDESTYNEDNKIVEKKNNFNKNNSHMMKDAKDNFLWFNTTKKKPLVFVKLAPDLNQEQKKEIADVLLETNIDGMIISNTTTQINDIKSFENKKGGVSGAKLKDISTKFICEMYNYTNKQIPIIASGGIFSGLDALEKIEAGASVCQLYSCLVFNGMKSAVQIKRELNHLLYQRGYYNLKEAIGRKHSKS
The experiment in a line: DHODH Inhibition Assay. The note with it: pH 8; 25 °C. As for the experimental part: The assays were carried out by using a colorimetric DCIP method, which uses the colorimetric reagent 2, 6-dichlorophenolindophenol as the final electron acceptor. DCIP reduction is stoichiometrically equivalent to oxidation of dihydroorotate. Changes in absorbance were quantified in triplicate on a plate reader and data were analyzed to measure the reduction of DCIP as a decrease in absorbance at 600 nm. The data were then processed with Graphpad Prism to determine the IC50 and the apparent enzyme inhibition constant (Ki) for each inhibitor. Ki values were calculated using the Cheng-Prusoff equation with the Km for CoQD of 13 uM and 15 uM for PfDHODH and HsDHODH respectively.

The pIC50 is the negative decadic logarithm of the IC50, by convention in mol/L. The low end stands for a large IC50, the high end for a small IC50. For the molecule `O=C(Nc1ccccc1C(=O)O)c1ccc2ccccc2c1` [2-(naphthalene-2-amido)benzoic acid], the pIC50 is under 3.70. On to `CN(C(=O)c1ccc2ccccc2c1)c1ccccc1C(=O)O` [2-[methyl(naphthalene-2-)amido]benzoic acid], for which the negative-log IC50 (pIC50) was under 3.70.
